From patent publication US6765096B1, “Tricyclic compound having acyloxymethoxycarbonyl side chain” (Shionogi & Co., Ltd., priority 1999, dated 2004)

Experiments:
[1] = tested on: anti-ovalbumin (OVA) IgE antibody production; assay: IgE antibody production inhibiting effects against anti-ovalbumin (OVA); anti-OVA IgE antibody titer (PCA titer); assay type: in vivo, BALB/c mice; settings: consecutive 10 days, OVA-immunized BALB/c mouse, Log2 of maximum serum dilution giving PCA positive reaction in Wistar rat
Procedure: Test Example 1 IgE Antibody Production Inhibiting Effects Against Anti-ovalbumin (OVA)
BALB/c mice (female, 8-10 weeks old) and Wistar rats (female, 8-10 weeks old) purchased from Japan SLC (Shizuoka) were used.
2) Method of Immunization
0.2 mL of a solution obtained by suspending 2 μg of ovalbumin (OVA) and 2 mg of aluminium hydroxide gel in a physiological saline was injected in a BALB/c mouse intraperitoneally to immunize it. After ten days, blood was taken from the heart, serum was separated, and stored at −40° C. until the IgE antibody titer was measured.
[…] Administration was carried out for consecutive 10 days from an immunization day to the day before a blood collection day.
4) Measurement of Anti-OVA IgE Antibody Titer (PCA Titer)
The resulting mouse serum was prepared into a 2-fold dilution series using a physiological saline, each 50 μl of which was injected to a pre-haircut Wistar rat intracutaneously at a back. After 24 hours, 0.5 mL of a physiological saline containing 1 mg of OVA and 5 mg of Evans Blue pigment was injected intravenously to induce passive cutaneous anaphylaxis reaction (PCA). After 30 minutes, a maximum dilution rate of the serum showing PCA positive reaction of a pigment spot having a diameter of 5 mm or more was determined, and Log2 of its dilution rate was adopted as a PCA titer. For example, when a serum becomes PCA reaction positive until 2^7-fold dilution, an anti-OVA IgE antibody titer of the mouse is 7.

[2] = Oral absorption test, fasting rat (Test Examples 2 and 3); assay type: in vivo, Jcl:SD male rat; settings: rat 18 hours fasting
Procedure: Test Example 2 Oral Absorption Test
(§1) The present compound (I-1) was ground with an agate mortar, which was prepared into an aqueous suspension having the concentration of 10 mg/mL using a 0.5% aqueous methylcellulose solution as a vehicle. Each compound was orally administered to a Jcl:SD male rat (10 weeks old, 18 hours fasting) as a parent compound at a rate of 20 mg/kg. 0.5, 1, 2, 4, 6, 8 and 24 hours after administration, 0.3 mL of blood was taken from a cannula inserted in rat jugular in advance. The blood was centrifuged to obtain a plasma. 0.5 mL of a mixed solution of methanol and acetonitrile (1/1 (w/w)) was added to 0.1 mL of the plasma, proteins were removed therefrom, followed by centrifugation. The supernatant was used as a HPLC sample.
The oral absorbabilities of the present compound (I-163) and its parent compound (II-4) were measured as in Test Example 2.

[3] = Oral absorption test, non-fasting rat (Test Example 4); assay type: in vivo
Procedure: as §1
Test Example 4 Oral Absorption Test
The oral absorbabilities of the present compound (I-16) and its parent compound (II-1) were measured as in Test Example 2 using a non-fasting rat.

[4] = oral administration, only parent compound (II-1) observed
[5] = plasma concentration of parent compound after oral administration, 20 mg/kg as parent compound
[6] = plasma concentration of parent compound (II-1) after oral administration

CC(C)=CCOc1ccc(-c2cc(C)c(-c3ccc(N(CC=C(C)C)C(=O)OCOC(=O)CCC(N)=O)cc3F)cc2C)cn1 [Compound I-1]
anti-OVA IgE antibody titer (PCA titer) ([1]; 3 mg/Kg orally): 7.0
anti-OVA IgE antibody titer (PCA titer) ([1]; 10 mg/Kg orally): 0.8
administered prodrug itself in the circulating plasma [2, 4]: not detected
AUC [2, 5]: 32030 ng·h/mL
Cmax [2, 5]: 2500 ng/mL

CC(=O)NC(CCC(=O)OCOC(=O)N(CC=C(C)C)c1ccc(-c2cc(C)c(-c3ccc(OCC=C(C)C)nc3)cc2C)c(F)c1)C(N)=O (stereo not drawn) [Compound I-6, 4-acetylamino-4-carbamoyl-butyric acid [{2-fluoro-2′,5′-dimethyl-4′-[6-(3-methyl-but-2-enyloxy)-pyridin-3-yl]-biphenyl-4-yl}-(3-methyl-but-2-enyl)-carbamoyloxy]-methyl ester]
anti-OVA IgE antibody titer (PCA titer) ([1]; 10 mg/Kg orally): 1.8

CC(=O)NC(CC(N)=O)C(=O)OCOC(=O)N(CC=C(C)C)c1ccc(-c2cc(C)c(-c3ccc(OCC=C(C)C)nc3)cc2C)c(F)c1 (stereo not drawn) [Compound I-13, 2-acetylamino-succinamic acid [{2-fluoro-2′,5′-dimethyl-4′-[6-(3-methyl-but-2-enyloxy)-pyridin-3-yl]-biphenyl-4-yl}-((E)-3-methyl-but-2-enyl)-carbamoyloxy]-methylester]
anti-OVA IgE antibody titer (PCA titer) ([1]; 10 mg/Kg orally): <0

CC(=O)NC(CCC(N)=O)C(=O)OCOC(=O)N(CC=C(C)C)c1ccc(-c2cc(C)c(-c3ccc(OCC=C(C)C)nc3)cc2C)c(F)c1 (stereo not drawn) [Compound I-15, 2-acetylamino-4-carbamoyl-butyric acid [{2-fluoro-2′,5′-dimethyl-4′-[6-(3-methyl-but-2-enyloxy)-pyridin-3-yl]-biphenyl-4-yl}-((E)-3-methyl-but-2-enyl)-carbamoyloxy]-methyl ester]
anti-OVA IgE antibody titer (PCA titer) ([1]; 10 mg/Kg orally): 0

CC(=O)NCC(=O)NCC(=O)OCOC(=O)N(CC=C(C)C)c1ccc(-c2cc(C)c(-c3ccc(OCC=C(C)C)nc3)cc2C)c(F)c1 [Compound I-16, (2-acetylamino-ethanoylamino)-acetic acid [{2-fluoro-2′,5′-dimethyl-4′-[6-(3-methyl-but-2-enyloxy)-pyridin-3-yl]-biphenyl-4yl]}-((E)-3-methyl-but-2-enyl)-carbamoyloxy]-methyl ester]
anti-OVA IgE antibody titer (PCA titer) ([1]; 10 mg/Kg orally): <0
administered prodrug itself in the circulating plasma [3, 4]: not detected
AUC [3, 6]: 165520 ng·h/mL
Cmax [3, 6]: 16020 ng/mL
